`COc1cccc(CC(=O)O)c1OCCCc1cn(-c2ccc(NS(C)(=O)=O)cn2)nc1C(C)C` [Example 269, (3-methoxy-2-{3-[3-isopropyl-1-(5-methylsulfonylamino-2-pyridyl)-1H-pyrazol-4-yl]propoxy}phenyl)acetic acid] yielded a melting point of 176 to 177 °C.
The same measure for `COc1ccc(OCCCc2cn(-c3ccc(C(F)(F)F)cn3)nc2C(C)C)c(CC(=O)O)c1` [Example 206, [2-(3-{3-isopropyl-1-[5-(trifluoromethyl)-2-pyridyl]-1H-pyrazol-4-yl}propoxy)-5-methoxyphenyl]acetic acid]: 143 to 144 °C; for `Cc1nn(-c2ccc(C(F)(F)F)cn2)cc1COc1cc(CCC(=O)O)n(C)n1` [Example 38, 3-(1-methyl-3-{3-methyl-1-[5-(trifluoromethyl)-2-pyridyl]-1H-pyrazol-4-ylmethoxy}-1H-pyrazol-5-yl)propionic acid]: 154 to 155 °C; for `CCOc1nn(-c2ccc(C(F)(F)F)cn2)cc1CCCOc1cccc(C(C)(C)C(=O)O)c1` [Example 160, 2-[3-(3-{3-ethoxy-1-[5-(trifluoromethyl)-2-pyridyl]-1H-pyrazol-4-yl}propoxy)phenyl]-2-methylpropanoic acid]: 131 to 132 °C.
The same measure for `CCCc1nn(-c2ccc(C(F)(F)F)cn2)cc1CCCOc1nn(C2CCCCC2)cc1CC(=O)O` [Example 320, [1-cyclohexyl-3-(3-{3-propyl-1-[5-(trifluoromethyl)-2-pyridinyl]-1H-pyrazol-4-yl}propoxy)-1H-pyrazol-4-yl]acetic acid]: 127 to 128 °C; for `CC(C)c1cccc(CC(=O)O)c1OCCCc1cn(-c2ccc(C(F)(F)F)cn2)nc1C(C)C` [Example 357, [3-isopropyl-2-(3-{3-isopropyl-1-[5-(trifluoromethyl)-2-pyridinyl]-1H-pyrazol-4-yl}propoxy)phenyl]acetic acid]: 108 to 109 °C.
Consider `CCOc1cc(OCCCCc2cc(-c3ccc(C(F)(F)F)cc3)no2)ccc1CCC(=O)O` [Example 21, 3-[2-ethoxy-4-(4-{3-[4-(trifluoromethyl)phenyl]-5-isoxazolyl}butoxy)phenyl]propionic acid], for which the melting point fell in the range of 105 to 106 °C.
Consider `CCOc1nn(-c2ccc(C(F)(F)F)cn2)cc1CCCOc1c(CCC(=O)O)cccc1OC` [Example 145, 3-[2-(3-{3-ethoxy-1-[5-(trifluoromethyl)-2-pyridyl]-1H-pyrazol-4-yl}propoxy)-3-methoxyphenyl]propionic acid], for which the melting point lay within 87 to 88 °C.
Regarding `CCCCc1nn(-c2ccc(C(F)(F)F)cn2)cc1CCCOc1cc(CC(=O)O)ccc1OCC` [Example 202, [3-(3-{3-butyl-1-[5-(trifluoromethyl)-2-pyridyl]-1H-pyrazol-4-yl}propoxy)-4-ethoxyphenyl]acetic acid], the melting point lay in the range of 105 to 106 °C.
The same measure for `CCOc1nn(-c2ccc(C(F)(F)F)cn2)cc1CCCOc1ccc(Cl)cc1CC(=O)O` [Example 139, [5-chloro-2-(3-{3-ethoxy-1-[5-(trifluoromethyl)-2-pyridyl]-1H-pyrazol-4-yl}propoxy)phenyl]acetic acid]: 130 to 131 °C; for `CCOc1nn(-c2ccc(C(F)(F)F)cn2)cc1CCCOc1ccc(CCC(=O)O)cc1OC(C)C` [Example 164, 3-[4-(3-{3-ethoxy-1-[5-(trifluoromethyl)-2-pyridyl]-1H-pyrazol-4-yl}propoxy)-3-isopropoxyphenyl]propanoic acid]: 93 to 94 °C; for `CCOc1nn(-c2ccc(C(F)(F)F)cn2)cc1CCOc1ccc(CC(=O)O)cc1` [Example 73, [4-(2-{3-ethoxy-1-[5-(trifluoromethyl)-2-pyridinyl]-1H-pyrazol-4-yl}ethoxy)phenyl]acetic acid]: 142 to 143 °C.
The value for `CCCc1nn(-c2ccc(C(F)(F)F)cn2)cc1CCCOc1ccc(OC)c(CCC(=O)O)c1` [Example 81, 3-[2-methoxy-5-(3-{3-propyl-1-[5-(trifluoromethyl)-2-pyridinyl]-1H-pyrazol-4-yl}propoxy)phenyl]propanoic acid] was 104 to 106 °C.
For `CCCc1nn(-c2ccc(C(F)(F)F)cn2)cc1CCCOc1nn(C)cc1CCC(=O)O` [Example 314, 3-[1-methyl-3-(3-{3-propyl-1-[5-(trifluoromethyl)-2-pyridinyl]-1H-pyrazol-4-yl}propoxy)-1H-pyrazol-4-yl]propanoic acid], the melting point lay in the range of 103 to 104 °C.
`CC(C)c1nn(-c2ccc(C(F)(F)F)cn2)cc1COc1cc(CCC(=O)O)n(C)n1` [Example 27, 3-(3-{3-isopropyl-1-[5-(trifluoromethyl)-2-pyridyl]-1H-pyrazol-4-ylmethoxy}-1-methyl-1H-pyrazol-5-yl)propionic acid] registered a melting point of 141 to 142 °C.
The same measure for `Cc1cccc(CC(=O)O)c1OCCCc1cn(-c2ccc(Cl)cn2)nc1C(C)(C)C` [Example 371, (2-{3-[3-tert-butyl-1-(5-chloropyridin-2-yl)-1H-pyrazol-4-yl]propoxy}-3-methylphenyl)acetic acid]: 112 to 113 °C.
As for `CCCc1nn(-c2ccc(C(F)(F)F)cn2)cc1CCCOc1cc(CCC(=O)O)n(C2CCCCC2)n1` [Example 256, 3-[1-cyclohexyl-3-(3-{3-propyl-1-[5-(trifluoromethyl)-2-pyridyl]-1H-pyrazol-4-yl}propoxy)-1H-pyrazol-5-yl]propanoic acid], the melting point is 164 to 165 °C.
`CCCc1nn(-c2ccc(C(F)(F)F)cn2)cc1CCCCOc1c(CC(=O)O)cccc1OC` [Example 295, [3-methoxy-2-(4-{3-propyl-1-[5-(trifluoromethyl)-2-pyridinyl]-1H-pyrazol-4-yl}butoxy)phenyl]acetic acid] registered a melting point of 111 to 112 °C.
With `CCOc1cc(OCCCc2cn(-c3ccc(C(F)(F)F)cn3)nc2O)ccc1CCC(=O)O` [Example 151, 3-[2-ethoxy-4-(3-{3-hydroxy-1-[5-(trifluoromethyl)-2-pyridyl]-1H-pyrazol-4-yl}propoxy)phenyl]propanoic acid], the melting point was in the range of 192 to 194 °C.
The value for `CCc1cccc(CC(=O)O)c1OCCCc1cn(-c2ccc(C(F)(F)F)nn2)nc1C(CC)CC` [Example 341, [3-ethyl-2-(3-{3-(1-ethylpropyl)-1-[6-(trifluoromethyl)pyridazin-3-yl]-1H-pyrazol-4-yl}propoxy)phenyl]acetic acid] was 93 to 94 °C; that for `CCOc1cccc(CC(=O)O)c1OCCCc1cn(-c2ccc(C(F)(F)F)cn2)nc1OCC` [Example 301, [3-ethoxy-2-(3-{3-ethoxy-1-[5-(trifluoromethyl)-2-pyridinyl]-1H-pyrazol-4-yl}propoxy)phenyl]acetic acid] was 114 to 115 °C; that for `O=C(O)CCc1ccc(OCCCc2cc(-c3ccc(C(F)(F)F)cc3)no2)cc1` [Example 5, 3-[4-(3-{3-[4-(trifluoromethyl)phenyl]-5-isoxazolyl}propoxy)phenyl]propionic acid] was 174 to 175 °C.
The compound `CCCCOc1cc(CCC(=O)O)ccc1OCCCc1cn(-c2ccc(C(F)(F)F)cn2)nc1OCC` [Example 165, 3-[3-butoxy-4-(3-{3-ethoxy-1-[5-(trifluoromethyl)-2-pyridyl]-1H-pyrazol-4-yl}propoxy)phenyl]propanoic acid] came in with a melting point of 92 to 93 °C.

These data come from US20060148858A1, “1, 2-Azole derivatives with hypoglycemic and hypolipidemic activity” (priority 2002, published 2006).
